# In ChEMBL document CHEMBL5724914, “Linking interpersonal differences in gut microbiota composition and drug biotransformation activity” (2024):
# Legend:
# [1] = human gut metagenome, 24 h, 2 µM
# [2] = human gut metagenome, 24 h, 2 µM; remark: listed apart in the source
# [3] = (§1) The drug is tested on WLS-010 corresponding to human gut metagenome with ENA study accession number: PRJEB37062 and ENA sample accession number: ERS12561743 for biotransformation under anaerobic condition. The drug concentrations were measured over 9 timepoints collected between 0 and 24 hours of incubation by liquid-chromatography-coupled mass spectrometry (LC–MS); conditions: 2 µM
# [4] = as §1, with “WLS-220” for “WLS-010”, “ERS12561769” for “ERS12561743”; conditions: 2 µM
# [5] = as §1, with “WLS-027” for “WLS-010”, “ERS12561744” for “ERS12561743”; conditions: 2 µM
# [6] = human gut metagenome, 24 h, 2 µM; remark: listed apart in the source
# [7] = human gut metagenome, 24 h, 2 µM; remark: listed apart in the source
# [8] = as §1, with “WLS-006” for “WLS-010”, “ERS12561741” for “ERS12561743”; conditions: 2 µM
# [9] = human gut metagenome, 24 h, 2 µM; remark: listed apart in the source
# Further: call rule not given here.
SMILES,Bacterial Biotransformation [1],Bacterial Biotransformation [2],Bacterial Biotransformation [3],Bacterial Biotransformation [4],Bacterial Biotransformation [5],Bacterial Biotransformation [6],Bacterial Biotransformation [7],Bacterial Biotransformation [8],Bacterial Biotransformation [9]
COc1cc2nc(N3CCN(C(=O)C4COc5ccccc5O4)CC3)nc(N)c2cc1OC.CS(=O)(=O)O (stereo not given) [DOXAZOSIN MESYLATE],Compound metabolized,Compound metabolized,Compound metabolized,Compound metabolized,Compound metabolized,Compound NOT metabolized,Compound metabolized,Compound metabolized,Compound NOT metabolized
COc1ccccc1OCCNCC(O)COc1cccc2[nH]c3ccccc3c12 (stereo not given) [CARVEDILOL],Compound metabolized,Compound metabolized,Compound metabolized,Compound metabolized,Compound metabolized,Compound metabolized,Compound metabolized,Compound metabolized,Compound metabolized
c1ccc2[nH]c(-c3cscn3)nc2c1 [THIABENDAZOLE],Compound NOT metabolized,Compound NOT metabolized,Compound NOT metabolized,Compound NOT metabolized,Compound NOT metabolized,Compound NOT metabolized,Compound metabolized,Compound NOT metabolized,Compound NOT metabolized
C[N+]12CCC(CC1)C(OC(=O)C(O)(c1ccccc1)c1ccccc1)C2.[Br-] (stereo not given) [CLIDINIUM BROMIDE],Compound NOT metabolized,Compound metabolized,Compound NOT metabolized,Compound NOT metabolized,Compound NOT metabolized,Compound NOT metabolized,Compound metabolized,Compound NOT metabolized,Compound metabolized
O=C1CC2(CCCC2)CC(=O)N1CCCCN1CCN(c2ncccn2)CC1 [BUSPIRONE],Compound metabolized,Compound metabolized,Compound NOT metabolized,Compound NOT metabolized,Compound NOT metabolized,Compound metabolized,Compound metabolized,Compound NOT metabolized,Compound NOT metabolized
COC(=O)C(c1ccccc1)C1CCCCN1 (stereo not given) [METHYLPHENIDATE],Compound NOT metabolized,Compound NOT metabolized,Compound NOT metabolized,Compound metabolized,Compound metabolized,Compound metabolized,Compound metabolized,Compound NOT metabolized,Compound NOT metabolized
OCCN(CCO)c1nc(N2CCCCC2)c2nc(N(CCO)CCO)nc(N3CCCCC3)c2n1 [DIPYRIDAMOLE],Compound NOT metabolized,Compound metabolized,Compound metabolized,Compound metabolized,Compound metabolized,Compound metabolized,Compound NOT metabolized,Compound NOT metabolized,Compound metabolized
CCN(CC)C(=O)C1(c2ccccc2)CC1CN (stereo not given),Compound NOT metabolized,Compound NOT metabolized,Compound NOT metabolized,Compound NOT metabolized,Compound NOT metabolized,Compound NOT metabolized,Compound NOT metabolized,Compound NOT metabolized,Compound NOT metabolized
COc1cc2nc(N3CCN(C(=O)C4CCCO4)CC3)nc(N)c2cc1OC (stereo not given) [TERAZOSIN],Compound NOT metabolized,Compound metabolized,Compound NOT metabolized,Compound metabolized,Compound NOT metabolized,Compound NOT metabolized,Compound metabolized,Compound metabolized,Compound NOT metabolized
CC(C)[C@H]1CC[C@H](C(=O)N[C@H](Cc2ccccc2)C(=O)O)CC1 [NATEGLINIDE],Compound metabolized,Compound metabolized,Compound metabolized,Compound metabolized,Compound metabolized,Compound metabolized,Compound metabolized,Compound metabolized,Compound metabolized
CCN(CC)CCNC(=O)c1ccc(NC(C)=O)cc1 [ACECAINIDE],Compound NOT metabolized,Compound metabolized,Compound NOT metabolized,Compound NOT metabolized,Compound NOT metabolized,Compound NOT metabolized,Compound metabolized,Compound NOT metabolized,Compound NOT metabolized
CC(=O)CCCCn1c(=O)c2c(ncn2C)n(C)c1=O [PENTOXIFYLLINE],Compound NOT metabolized,Compound NOT metabolized,Compound NOT metabolized,Compound NOT metabolized,Compound NOT metabolized,Compound NOT metabolized,Compound metabolized,Compound NOT metabolized,Compound NOT metabolized
CCCN(CCC)CCc1cccc2c1CC(=O)N2 [ROPINIROLE],Compound NOT metabolized,Compound metabolized,Compound NOT metabolized,Compound metabolized,Compound NOT metabolized,Compound NOT metabolized,Compound metabolized,Compound NOT metabolized,Compound NOT metabolized
CCCN1C[C@H](CSC)C[C@@H]2c3cccc4[nH]cc(c34)C[C@H]21.CS(=O)(=O)O [PERGOLIDE MESYLATE],Compound NOT metabolized,Compound NOT metabolized,Compound NOT metabolized,Compound NOT metabolized,Compound NOT metabolized,Compound NOT metabolized,Compound NOT metabolized,Compound NOT metabolized,Compound NOT metabolized
CCOc1ccc2nc(S(N)(=O)=O)sc2c1 [ETHOXZOLAMIDE],Compound NOT metabolized,Compound NOT metabolized,Compound NOT metabolized,Compound NOT metabolized,Compound NOT metabolized,Compound NOT metabolized,Compound NOT metabolized,Compound NOT metabolized,Compound NOT metabolized
CC(N)C12CC3CC(CC(C3)C1)C2 (stereo not given) [RIMANTADINE],Compound NOT metabolized,Compound NOT metabolized,Compound NOT metabolized,Compound NOT metabolized,Compound NOT metabolized,Compound NOT metabolized,Compound NOT metabolized,Compound NOT metabolized,Compound NOT metabolized
CCOC(=O)C1=C[C@]2(CC)CCCN3CCc4c(n1c1ccccc41)[C@@H]32 [VINPOCETINE],Compound NOT metabolized,Compound metabolized,Compound NOT metabolized,Compound NOT metabolized,Compound metabolized,Compound metabolized,Compound NOT metabolized,Compound metabolized,Compound metabolized
O=C1C(CC[S+]([O-])c2ccccc2)C(=O)N(c2ccccc2)N1c1ccccc1 (stereo not given) [SULFINPYRAZONE],Compound metabolized,Compound metabolized,Compound metabolized,Compound metabolized,Compound metabolized,Compound metabolized,Compound metabolized,Compound metabolized,Compound metabolized
Nc1nnc(-c2cccc(Cl)c2Cl)c(N)n1 [LAMOTRIGINE],Compound NOT metabolized,Compound NOT metabolized,Compound NOT metabolized,Compound NOT metabolized,Compound NOT metabolized,Compound NOT metabolized,Compound metabolized,Compound NOT metabolized,Compound NOT metabolized
CC(=O)Nc1ccc(OC(C)=O)cc1 [DIACETAMATE],Compound metabolized,Compound metabolized,Compound metabolized,Compound metabolized,Compound metabolized,Compound metabolized,Compound metabolized,Compound metabolized,Compound metabolized
